Laboratory results as given in PubChem BioAssay (NCI).
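How tested: cells in 96-well plates exposed to compound for 48 hours at five concentrations. Here, GI50 denotes the concentration required for 50% inhibition of growth. TGI: total growth inhibition.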

Experiments:
Assay in all cases: NCI anticancer screen, dose series, 48 h
M14 melanoma = test system: M14 melanoma
SK-MEL-5 melanoma = test system: SK-MEL-5 melanoma
SK-MEL-2 melanoma = test system: SK-MEL-2 melanoma
HL-60(TB) leukemia = test system: HL-60(TB) leukemia
TK-10 renal = test system: TK-10 renal
HT29 colon = test system: HT29 colon
SNB-75 CNS = test system: SNB-75 CNS
UACC-257 melanoma = test system: UACC-257 melanoma
UACC-62 melanoma = test system: UACC-62 melanoma
A498 renal = test system: A498 renal

| Structure (SMILES) | TGI (M14 melanoma) | TGI (SK-MEL-5 melanoma) | TGI (SK-MEL-2 melanoma) | TGI (HL-60(TB) leukemia) | TGI (TK-10 renal) | TGI (HT29 colon) | TGI (SNB-75 CNS) | TGI (UACC-257 melanoma) | TGI (UACC-62 melanoma) | TGI (A498 renal) | GI50 (M14 melanoma) | GI50 (SK-MEL-5 melanoma) | GI50 (SK-MEL-2 melanoma) | GI50 (HL-60(TB) leukemia) | GI50 (TK-10 renal) | GI50 (HT29 colon) | GI50 (A498 renal) | GI50 (SNB-75 CNS) | GI50 (UACC-257 melanoma) | GI50 (UACC-62 melanoma) |
| --- | --- | --- | --- | --- | --- | --- | --- | --- | --- | --- | --- | --- | --- | --- | --- | --- | --- | --- | --- | --- |
| Cc1ccc(CCCC(=O)O)cc1C | > 100 µM | > 100 µM | > 100 µM | > 100 µM | > 100 µM | > 100 µM | > 100 µM | > 100 µM | > 100 µM | – | – | – | – | – | – | – | – | – | – | – |
| CSc1nc(NC2OC(CO)C(O)C(O)C2O)c(N)c(=O)n1C (stereo not drawn) | – | > 100 µM | > 100 µM | > 100 µM | – | > 100 µM | > 100 µM | > 100 µM | > 100 µM | > 100 µM | – | – | – | – | – | – | – | – | – | – |
| N=C(N)c1ccc(-c2ccc(-c3ccccc3)o2)cc1 | 3.66 µM | 3.72 µM | 3.98 µM | 4.42 µM | 3.73 µM | 4.51 µM | 3.43 µM | 4.56 µM | – | 9.46 µM | 1.77 µM | 1.94 µM | 2.14 µM | 1.93 µM | 1.89 µM | 2.01 µM | 2.85 µM | 1.45 µM | 2.21 µM | – |
| Nc1cccc2cc(S(=O)(=O)Nc3ccc(C(=O)O)cc3)ccc12 | > 100 µM | > 100 µM | > 100 µM | > 100 µM | > 100 µM | > 100 µM | > 100 µM | > 100 µM | > 100 µM | > 100 µM | – | – | – | – | – | – | – | – | – | – |
| NC(=O)OCc1c(O)c2c(c(O)c1COC(N)=O)C(=O)C=CC2=O | > 100 µM | > 100 µM | > 100 µM | > 100 µM | > 100 µM | > 100 µM | > 100 µM | > 100 µM | > 100 µM | > 100 µM | – | – | – | – | – | – | – | – | – | – |
| COc1ccc(C2C(Cl)C(=O)N2NC(=O)c2ccc(NC(C)=O)cc2)cc1OC (stereo not drawn) | – | > 100 µM | > 100 µM | > 100 µM | > 100 µM | > 100 µM | > 100 µM | > 100 µM | > 100 µM | – | – | – | – | – | – | – | – | – | – | – |
| O=C(Nc1ccc(-n2cc(-c3ccncc3)c(-c3ccc(O)c(Cl)c3)n2)cc1)c1ccc(Cl)c(Cl)c1 | 1.52 µM | > 32.5 µM | 7.41 µM | > 32.5 µM | > 32.5 µM | – | > 32.5 µM | > 32.5 µM | > 32.5 µM | > 32.5 µM | 0.668 µM | 1 µM | 0.932 µM | 1.39 µM | 1.52 µM | – | > 32.5 µM | 2.64 µM | > 32.5 µM | 2.48 µM |
| CC(C)c1cccc(C(C)C)c1NC(=S)Nc1ccccc1 | > 100 µM | > 100 µM | > 100 µM | 32.4 µM | > 100 µM | > 100 µM | > 100 µM | > 100 µM | > 100 µM | > 100 µM | – | – | – | – | – | – | – | – | – | – |
| CCN(CC)CCSc1nc2c([N+](=O)[O-])cccc2[nH]1 | > 100 µM | > 100 µM | – | > 100 µM | > 100 µM | > 100 µM | > 100 µM | > 100 µM | > 100 µM | – | – | – | – | – | – | – | – | – | – | – |
| CC[n+]1c(/C=C/c2ccc(N(CCCl)CCCl)cc2)ccc2cc(Br)ccc21 | 4.19 µM | – | 1.28 µM | – | – | – | 0.936 µM | – | 7.55 µM | 6900 µM | – | 135 µM | – | 86.2 µM | 652 µM | 548 µM | – | – | 95.8 µM | – |
| O=C1c2ccccc2-c2ccc(N(Cc3ccc(Br)cc3)Cc3ccc(Br)cc3)cc21 | > 100 µM | > 100 µM | > 100 µM | 46.8 µM | > 100 µM | > 100 µM | > 100 µM | > 100 µM | > 100 µM | > 100 µM | – | – | – | – | – | – | – | – | – | – |
| CC(C)=CCC/C(C)=C/CC/C(C)=C/C(O)c1ccccc1 (stereo not drawn) | 32.7 µM | 30.2 µM | 34.9 µM | 43.8 µM | 88.4 µM | 32.9 µM | – | 35.6 µM | 30.9 µM | 34.2 µM | – | – | – | – | – | – | – | – | – | – |
| CNC1=C(C)C(=O)C2=C(C1=O)C(COC(N)=O)C1(OC)C3NC3CN21 (stereo not drawn) | 2.01 µM | 0.268 µM | 4.27 µM | > 100 µM | 94.1 µM | 4.01 µM | 0.971 µM | 3.64 µM | 1.55 µM | 2.35 µM | – | – | – | – | – | – | – | – | – | – |
